Assay results from ChEMBL document CHEMBL3853282, “(±)-Japonicols A-D, Acylphloroglucinol-Based Meroterpenoid Enantiomers with Anti-KSHV Activities from Hypericum japonicum” (J Nat Prod, 2016).

How the values were obtained:
Human gammaherpesvirus 8 = experiment: Antiviral activity against Kaposi's sarcoma-associated herpesvirus infected in African green monkey Vero cells exposed to supernatant from 48 hrs compound treated human iSLK.219 cells infected with KSHV by GFP based microscopy; format: functional, cell-based; conditions: Human gammaherpesvirus 8, Vero
[1] = Cytotoxicity against African green monkey Vero cells assessed as reduction in cell viability after 48 hrs by Alamar blue assay; format: toxicity, cell-based; conditions: chlorocebus sabaeus
[2] = Selectivity index, ratio of CC50 for African green monkey Vero cells to EC50 for Kaposi's sarcoma-associated herpesvirus infected in African green monkey Vero cells; format: toxicity, cell-based; conditions: read-out: Ratio CC50/EC50

Row | Compound | EC50 (Human gammaherpesvirus 8) | CC50 at 48 h [1] | selectivity ratio [2]
1 | CC(C)C(=O)c1c(O)cc(O)c(C[C@@H]2[C@@H](C(C)(C)O)CC[C@]2(C)O)c1O | 158 µM | > 300 µM | > 1.89
2 | CC(C)C(=O)c1c(O)cc(O)c2c1OC(C)(C)[C@@H]1CC[C@@](C)(O)[C@H]1C2 | 39.8 µM | > 300 µM | –
3 | CC(C)C(=O)c1c(O)cc(O)c2c1O[C@@]1(C)CC[C@@H](C(C)(C)O)[C@@H]2[C@H]1O | 203 µM | > 500 µM | > 2.46
4 | CC(C)C(=O)c1c(O)cc(O)c2c1OC(C)(C)[C@H]1CC[C@](C)(O)[C@@H]1C2 | 17.7 µM | 221 µM | –
5 | CC(C)C(=O)c1c(O)cc(O)c(C[C@H]2[C@H](C(C)(C)O)CC[C@@]2(C)O)c1O | 40 µM | > 300 µM | > 7.5
6 | CC(C)C(=O)c1c(O)cc(O)c2c1O[C@]1(C)CC[C@H](C(C)(C)O)[C@H]2[C@@H]1O | 141 µM | > 500 µM | > 3.55
7 | CC(C)C(=O)c1c(O)cc(O)c2c1O[C@]1(C)CC[C@@H](C(C)(C)O)O[C@@H]1C2 | 29.1 µM | 174 µM | –
8 | CC(C)C(=O)c1c(O)cc(O)c2c1O[C@@]1(C)CC[C@H](C(C)(C)O)O[C@H]1C2 | 8.75 µM | 141 µM | –
